According to ChEMBL document CHEMBL1201862, “PubChem BioAssay data set” (2004):
Calls of active or inactive are those of the source.

Assays:
[1] = target: Sphingosine 1-phosphate receptor 2 (Homo sapiens, UniProt O95136); experiment: Dose Response Cell Based Assay for Agonists of the S1P2 Receptor of Purchased Analogues. [Related pubchem assays: 729, 843, 854, 736 ]; type: functional
[2] = target: Peroxisome proliferator-activated receptor gamma/Nuclear receptor coactivator 2 (Homo sapiens, UniProt P37231); type: functional;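 further: agonist potency for raising coactivator recruitment to the receptor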
Sequence of Peroxisome proliferator-activated receptor gamma/Nuclear receptor coactivator 2 (P37231 whole entry): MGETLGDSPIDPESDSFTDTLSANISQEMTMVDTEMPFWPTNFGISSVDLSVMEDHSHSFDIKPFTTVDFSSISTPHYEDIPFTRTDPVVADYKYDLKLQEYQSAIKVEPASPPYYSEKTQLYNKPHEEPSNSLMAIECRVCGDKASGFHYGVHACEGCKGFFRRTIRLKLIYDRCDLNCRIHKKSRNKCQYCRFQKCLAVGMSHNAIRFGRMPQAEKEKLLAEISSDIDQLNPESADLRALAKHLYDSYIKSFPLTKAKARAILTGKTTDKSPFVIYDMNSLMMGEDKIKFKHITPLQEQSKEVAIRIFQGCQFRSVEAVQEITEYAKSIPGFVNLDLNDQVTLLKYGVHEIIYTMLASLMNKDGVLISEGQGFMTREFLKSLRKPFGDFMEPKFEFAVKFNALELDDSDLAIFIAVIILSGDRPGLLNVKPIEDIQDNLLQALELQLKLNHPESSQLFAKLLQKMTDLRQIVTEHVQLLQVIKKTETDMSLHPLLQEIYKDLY
Sequence of Peroxisome proliferator-activated receptor gamma/Nuclear receptor coactivator 2 (Q15596 whole entry, further chain): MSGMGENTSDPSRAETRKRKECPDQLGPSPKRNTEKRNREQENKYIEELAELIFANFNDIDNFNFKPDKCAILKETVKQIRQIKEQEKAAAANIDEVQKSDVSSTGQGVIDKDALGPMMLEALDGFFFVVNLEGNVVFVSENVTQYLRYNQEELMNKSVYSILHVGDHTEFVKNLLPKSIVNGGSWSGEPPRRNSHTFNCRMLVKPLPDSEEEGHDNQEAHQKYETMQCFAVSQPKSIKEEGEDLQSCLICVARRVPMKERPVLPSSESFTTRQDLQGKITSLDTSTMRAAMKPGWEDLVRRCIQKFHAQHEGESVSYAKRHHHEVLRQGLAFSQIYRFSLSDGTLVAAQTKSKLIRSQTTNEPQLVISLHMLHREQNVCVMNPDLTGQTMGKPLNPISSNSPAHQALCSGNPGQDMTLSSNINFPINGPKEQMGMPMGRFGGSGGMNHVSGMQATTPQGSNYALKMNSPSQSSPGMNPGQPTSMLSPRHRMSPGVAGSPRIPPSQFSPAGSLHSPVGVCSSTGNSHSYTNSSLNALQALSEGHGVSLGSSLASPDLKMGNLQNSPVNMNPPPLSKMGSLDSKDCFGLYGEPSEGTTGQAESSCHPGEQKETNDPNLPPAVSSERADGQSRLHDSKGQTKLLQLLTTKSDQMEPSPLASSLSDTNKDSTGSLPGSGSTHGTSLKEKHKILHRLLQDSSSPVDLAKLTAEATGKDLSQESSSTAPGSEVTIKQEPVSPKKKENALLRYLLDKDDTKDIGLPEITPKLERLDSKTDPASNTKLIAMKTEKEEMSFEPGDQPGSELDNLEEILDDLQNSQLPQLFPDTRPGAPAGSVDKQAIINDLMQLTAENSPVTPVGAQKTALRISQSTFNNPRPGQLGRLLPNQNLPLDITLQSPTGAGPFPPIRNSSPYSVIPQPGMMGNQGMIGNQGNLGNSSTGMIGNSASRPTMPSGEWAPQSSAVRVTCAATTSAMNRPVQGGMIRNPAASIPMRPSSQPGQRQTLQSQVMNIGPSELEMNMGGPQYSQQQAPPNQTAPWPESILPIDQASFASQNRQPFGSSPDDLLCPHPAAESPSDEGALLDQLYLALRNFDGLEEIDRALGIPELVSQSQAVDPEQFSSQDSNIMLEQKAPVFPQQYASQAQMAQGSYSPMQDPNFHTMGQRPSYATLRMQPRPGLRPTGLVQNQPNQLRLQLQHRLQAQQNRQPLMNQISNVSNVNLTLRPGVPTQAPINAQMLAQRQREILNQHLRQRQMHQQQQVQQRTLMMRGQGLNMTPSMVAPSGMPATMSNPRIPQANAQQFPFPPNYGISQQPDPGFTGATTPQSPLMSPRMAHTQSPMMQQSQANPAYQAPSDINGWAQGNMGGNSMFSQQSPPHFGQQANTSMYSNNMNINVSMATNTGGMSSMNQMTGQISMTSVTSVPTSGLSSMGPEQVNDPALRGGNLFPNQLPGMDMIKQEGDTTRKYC

[3] = target: Peroxisome proliferator-activated receptor gamma/Nuclear receptor coactivator 1 (Homo sapiens, UniProt P37231); type: functional;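 further: agonist potency as compounds enhance coactivator SRC-1 recruitment to PPARgamma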
[4] = target: T1, Heat shock factor protein 1 (Mus musculus, UniProt P38532); experiment: HSF1 potentiators in luciferase reporter cells, confirmation, cell-based, NIH3T3, luminescence, dose retest (AID 435004); type: functional;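 further: stress induced by proteasome inhibitor MG132 added 30 min after compound; luciferase reporter driven by HSF1 response element in NIH3T3 cells; actives raise luminescence as potentiators of the MG132 stress response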
T1 sequence (P38532 whole entry): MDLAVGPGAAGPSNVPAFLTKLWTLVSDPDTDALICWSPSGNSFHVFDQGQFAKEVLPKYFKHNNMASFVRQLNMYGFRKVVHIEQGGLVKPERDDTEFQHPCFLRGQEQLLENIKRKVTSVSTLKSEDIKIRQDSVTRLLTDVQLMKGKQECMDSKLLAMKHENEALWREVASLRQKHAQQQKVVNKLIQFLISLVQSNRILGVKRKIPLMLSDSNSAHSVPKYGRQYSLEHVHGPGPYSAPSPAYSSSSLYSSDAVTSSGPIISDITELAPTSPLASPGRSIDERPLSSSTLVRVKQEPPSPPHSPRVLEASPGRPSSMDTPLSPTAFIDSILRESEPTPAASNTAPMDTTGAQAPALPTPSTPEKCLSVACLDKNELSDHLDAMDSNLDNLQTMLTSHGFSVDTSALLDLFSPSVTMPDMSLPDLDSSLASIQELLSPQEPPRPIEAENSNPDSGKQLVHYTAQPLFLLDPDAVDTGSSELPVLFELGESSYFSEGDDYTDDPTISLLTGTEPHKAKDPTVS

[5] = target: Peroxisome proliferator-activated receptor gamma/Nuclear receptor coactivator 3 (Homo sapiens, UniProt P37231); type: functional;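 further: agonist potency for raising coactivator recruitment to the receptor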
Sequence of Peroxisome proliferator-activated receptor gamma/Nuclear receptor coactivator 3 (P37231 whole entry): as the sequence (P37231 whole entry) above
Sequence of Peroxisome proliferator-activated receptor gamma/Nuclear receptor coactivator 3 (Q9Y6Q9 whole entry, further chain): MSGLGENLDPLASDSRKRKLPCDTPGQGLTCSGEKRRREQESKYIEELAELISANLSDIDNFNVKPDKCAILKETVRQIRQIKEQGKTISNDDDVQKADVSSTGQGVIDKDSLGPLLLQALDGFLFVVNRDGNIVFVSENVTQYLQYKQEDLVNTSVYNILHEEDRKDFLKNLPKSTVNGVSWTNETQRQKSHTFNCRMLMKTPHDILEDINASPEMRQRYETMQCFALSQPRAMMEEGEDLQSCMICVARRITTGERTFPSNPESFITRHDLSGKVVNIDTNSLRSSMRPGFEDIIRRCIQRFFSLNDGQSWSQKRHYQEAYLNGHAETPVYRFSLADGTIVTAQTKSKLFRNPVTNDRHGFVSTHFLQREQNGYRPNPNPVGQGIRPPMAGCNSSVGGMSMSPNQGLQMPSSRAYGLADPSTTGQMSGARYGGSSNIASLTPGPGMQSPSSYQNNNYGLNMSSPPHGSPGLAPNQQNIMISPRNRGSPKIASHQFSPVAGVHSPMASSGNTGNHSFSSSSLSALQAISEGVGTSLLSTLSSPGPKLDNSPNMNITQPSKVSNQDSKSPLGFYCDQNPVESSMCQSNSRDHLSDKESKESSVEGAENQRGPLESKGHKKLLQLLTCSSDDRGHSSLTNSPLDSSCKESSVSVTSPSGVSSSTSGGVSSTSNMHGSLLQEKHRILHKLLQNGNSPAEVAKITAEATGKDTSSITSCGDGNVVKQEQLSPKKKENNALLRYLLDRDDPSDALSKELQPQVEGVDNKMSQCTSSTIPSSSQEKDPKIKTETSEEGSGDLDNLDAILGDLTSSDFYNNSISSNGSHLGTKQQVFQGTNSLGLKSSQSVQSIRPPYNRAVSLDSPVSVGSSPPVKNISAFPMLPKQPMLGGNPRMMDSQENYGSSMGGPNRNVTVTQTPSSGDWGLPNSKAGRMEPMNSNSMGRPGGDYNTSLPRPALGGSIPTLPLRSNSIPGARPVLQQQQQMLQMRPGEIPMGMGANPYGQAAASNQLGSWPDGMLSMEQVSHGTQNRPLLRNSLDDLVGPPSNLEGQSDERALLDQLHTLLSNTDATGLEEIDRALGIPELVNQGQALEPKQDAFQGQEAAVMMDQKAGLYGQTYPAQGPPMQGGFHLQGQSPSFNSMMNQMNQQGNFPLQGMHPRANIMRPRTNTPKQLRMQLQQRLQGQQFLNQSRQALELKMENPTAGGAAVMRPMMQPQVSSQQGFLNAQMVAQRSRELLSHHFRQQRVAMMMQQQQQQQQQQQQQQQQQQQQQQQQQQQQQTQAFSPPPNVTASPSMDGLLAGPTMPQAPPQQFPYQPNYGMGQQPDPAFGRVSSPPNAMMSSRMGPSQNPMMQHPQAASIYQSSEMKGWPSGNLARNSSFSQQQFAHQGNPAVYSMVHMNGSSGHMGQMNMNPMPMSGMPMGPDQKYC

[6] = inhibitors of Bluetongue virus cytopathic effect, confirmation, arbovirus, BSR cells (AID 1250); type: functional;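 further: protection from viral cytopathic effect measured as cell viability by ATP luminescence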
HEK293 [7] = experiment: NOD1 signaling inhibitors, primary screen, cell-based, luminescence, uHTS (AID 1578); type: functional; details: Homo sapiens
HEK293 [8] = experiment: NOD2 signaling inhibitors in MDP-stimulated cells, cell-based, uHTS, luminescence (AID 2001); type: functional; details: Homo sapiens
HEK293 [9] = experiment: cells; type: functional, cell-based; details: Homo sapiens
HEK293 [10] = experiment: cells; type: functional, cell-based; details: Homo sapiens; remark: listed apart in the source
[11] = target: Voltage-gated inwardly rectifying potassium channel KCNH2 (Homo sapiens, UniProt Q12809); experiment: hERG protection from proarrhythmic block, potency, dose response, cell-based, thallium flux (AID 2121); type: ADME
[12] = NIH-3T3 fibroblast cytotoxicity, dose response, cytotoxicity control, cell-based, fluorescence, Alamar Blue, secondary assay (AID 2327); type: functional;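 further: NIH-3T3 mouse fibroblasts cultured with fluconazole at 8 µg/mL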
[13] = C. albicans growth with fluconazole, confirmation, fluorescence, retest (AID 2467); type: functional, cell-based
Cytochrome P450 2C19 = Cytochrome P450 2C19 (Homo sapiens, UniProt P33261); experiment: Cytochrome panel assay with activity outcomes. Panel member name: p450-cyp2c19 Compounds with AC50 equal or less than 10 uM are considered active; type: functional; details: read-out: AC50
Cytochrome P450 2C9 [14] = target: T2, Cytochrome P450 2C9 (Homo sapiens, UniProt P11712)
T2 sequence (P11712 whole entry): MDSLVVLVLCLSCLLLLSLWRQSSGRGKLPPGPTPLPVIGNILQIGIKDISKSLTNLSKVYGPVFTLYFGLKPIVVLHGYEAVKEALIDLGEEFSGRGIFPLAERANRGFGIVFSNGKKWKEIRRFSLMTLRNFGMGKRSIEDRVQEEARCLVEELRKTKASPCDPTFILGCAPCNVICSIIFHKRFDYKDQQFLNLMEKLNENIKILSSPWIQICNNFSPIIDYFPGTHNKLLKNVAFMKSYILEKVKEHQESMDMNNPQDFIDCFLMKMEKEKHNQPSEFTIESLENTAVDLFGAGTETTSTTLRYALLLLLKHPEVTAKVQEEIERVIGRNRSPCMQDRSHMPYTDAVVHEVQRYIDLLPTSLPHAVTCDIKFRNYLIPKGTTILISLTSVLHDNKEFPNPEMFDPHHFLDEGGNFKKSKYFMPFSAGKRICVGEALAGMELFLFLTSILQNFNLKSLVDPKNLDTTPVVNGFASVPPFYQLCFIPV

Cytochrome P450 2C9 [15] = target: T2, Cytochrome P450 2C9; details: Potency
Bcl-2-like protein 10 = target: T3, Bcl-2-like protein 10 (Homo sapiens, UniProt Q9HD36); experiment: displacers of TR3 peptide from Bcl-B, primary screen, selectivity assay for Bfl-1 inhibitor project, biochemical, fluorescence polarization, FITC-TR3 peptide (AID 748);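 further: fluorescence polarization from a fluorescein-labelled TR3 peptide binding purified Bcl-B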
T3 sequence (Q9HD36 whole entry): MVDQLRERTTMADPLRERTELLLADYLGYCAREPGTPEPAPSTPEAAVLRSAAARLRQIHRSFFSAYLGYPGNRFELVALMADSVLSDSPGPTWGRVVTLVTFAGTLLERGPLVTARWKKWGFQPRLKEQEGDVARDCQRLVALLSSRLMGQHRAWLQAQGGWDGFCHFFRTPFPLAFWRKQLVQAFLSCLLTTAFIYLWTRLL

Sequence of Sphingosine 1-phosphate receptor 2 (O95136 whole entry): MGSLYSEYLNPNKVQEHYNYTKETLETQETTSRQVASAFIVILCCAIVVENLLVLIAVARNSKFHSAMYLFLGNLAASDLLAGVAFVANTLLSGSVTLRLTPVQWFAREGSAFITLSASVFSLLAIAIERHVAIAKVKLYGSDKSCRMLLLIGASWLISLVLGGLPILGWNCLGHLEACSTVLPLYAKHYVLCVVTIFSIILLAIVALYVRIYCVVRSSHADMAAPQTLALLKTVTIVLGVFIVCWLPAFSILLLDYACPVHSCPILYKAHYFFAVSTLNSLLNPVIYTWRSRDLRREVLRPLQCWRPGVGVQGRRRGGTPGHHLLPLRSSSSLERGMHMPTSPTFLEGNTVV

Cc1cc(C(=O)CN2CCN(C(=O)c3ccco3)CC2)c(C)n1Cc1ccccc1
EC50 [1]: > 30 µM (not active)

O=C(COC(=O)c1ccccc1C(=O)c1ccccc1)NCCc1ccccc1
EC50 [2]: > 79.4 µM (not active) | EC50 [3]: > 79.4 µM (not active) | EC50 [4]: > 260 µM (inactive) | EC50 [5]: > 79.4 µM (not active)

CC(CCc1ccccc1)NC(=O)c1cc2sccc2n1C (configuration not stated)
IC50 [6]: > 100 µM (active)

O=C(CCCn1c(=O)[nH]c2ccc(Br)cc2c1=O)NCc1ccc(Cl)cc1
EC50 [2]: > 79.4 µM (not active) | EC50 [3]: > 79.4 µM (not active) | EC50 [5]: > 79.4 µM (not active)

CSC(=S)N/N=C/c1ccc(Br)cc1
EC50 (HEK293 [7]): > 20 µM (inactive) | IC50 (HEK293 [8]): 14.2 µM (inactive) | IC50 (HEK293 [9]): > 20 µM (inactive) | IC50 (HEK293 [10]): > 20 µM (inactive) | EC50 [11]: 0.3 µM (active)

Cc1ccc2nc(-c3ccccc3Cl)cc(C(=O)Nc3cc(C)on3)c2c1
EC50 [12]: > 160 µM (inactive) | EC50 [13]: 3.33 µM (active) | IC50 [6]: 45.5 µM (active)

CC(C)C(=O)Nc1ccc([N+](=O)[O-])c(C(F)(F)F)c1 [FLUTAMIDE]
AC50 (Cytochrome P450 2C19): 10 µM (inconclusive) | AC50 (Cytochrome P450 2C9 [14]): 12.6 µM (inconclusive) | AC50 (Cytochrome P450 2C9 [15]): 39.8 µM (inconclusive)

O=C1NC(=O)[C@]2(Cc3ccccc3N3CCN(c4ccccc4)CC32)C(=O)N1c1ccccc1 (some centres not stated)
IC50 (Bcl-2-like protein 10): 54 µM (inactive)

Cc1cc(C(=O)COC(=O)CN2C(=O)NC(C)(C)C2=O)c(C)n1Cc1ccccc1
EC50 [1]: > 30 µM (not active)
